Results taken from US20150266850A1 (E.I.DU PONT DE NEMOURS AND COMPANY, priority 2012, published 2015).
Marks after values point to notes of the source that are not given here.

Legend:
Format in all cases: in vivo
Details in all cases: 100 = 100% disease control
Septoria tritici = test: Test C: wheat leaf blotch, preventive spray on wheat seedlings, visual disease rating
How it was run: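 Preventive run-off spray on seedlings at 200 ppm (equal to 800 g/ha), some at 40 or 50 ppm, in acetone/water 50/50 plus 250 ppm Trem® 014. Spore inoculation one day later; 24° C. saturated for 48 h, 20° C. chamber 19 days. Disease scored visually as % control relative to controls.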

[1] = tested on: Puccinia recondita f sp. tritici; test: Test B: wheat leaf rust, preventive spray on wheat seedlings, visual disease rating
How it was run: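 Preventive spray to run-off on seedlings, one day before spore inoculation; 24 h in saturated atmosphere at 20° C, then 7 days in a 20° C growth chamber before visual rating (100 = full control, 0 = none, relative to controls). Standard rate 200 ppm, equal to 800 g/ha, some at 40 or 50 ppm; compounds in acetone/water with 250 ppm surfactant.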

[2] = tested on: Erysiphe graminis f. sp. tritici; test: Test A: wheat powdery mildew, preventive spray on wheat seedlings, visual disease rating
How it was run: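 Preventive test: seedlings inoculated with Erysiphe spores one day after run-off spraying at 200 ppm (or 40/50 ppm) in acetone/water plus surfactant. Kept 8 days at 20° C; visual rating as % disease control versus untreated (100 = full control).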

Botrytis cinerea = test: Test E: tomato botrytis, preventive spray on tomato seedlings, visual disease rating
Text: General protocol for preparing test suspensions for Tests A-E: the test compounds were first dissolved in acetone in an amount equal to 11% of the final volume and then suspended at the desired concentration (in ppm) in acetone and purified water (50/50 mix by volume) containing 250 ppm of the surfactant Trem® 014 (polyhydric alcohol esters). The resulting test suspensions were then used in Tests A-E. Spraying a 200 ppm test suspension to the point of run-off on the test plants was the equivalent of a rate of 800 g/ha.
The test suspension was sprayed to the point of run-off on tomato seedlings. The following day the seedlings were inoculated with a spore suspension of Botrytis cinerea (the causal agent of tomato botrytis) and incubated in saturated atmosphere at 20° C. for 48 h, and then moved to a growth chamber at 27° C. for 3 additional days, after which time disease ratings were visually made.
Results for Tests A-E are given in Table A. In the Table, a rating of 100 indicates 100% disease control and a rating of 0 indicates no disease control (relative to the controls). A dash (-) indicates no test results. All results are for 200 ppm except where followed by an “*”, which indicates 40 ppm or “**”, which indicates 50 ppm.

Septoria nodorum = test: Test D: wheat glume blotch, preventive spray on wheat seedlings, visual disease rating
How it was run: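 Disease control (0 = none, 100 = full, relative to controls) was scored visually on wheat seedlings 7 days after a 48 h saturated-humidity incubation at 20° C following Septoria nodorum inoculation. Inoculation came one day after a run-off spray at 200 ppm (some 40 or 50 ppm) in acetone/water plus surfactant.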

Row | Structure (SMILES) | Test C disease control rating (Septoria tritici; 40 ppm (*)) | Test B disease control rating ([1]; 40 ppm (*)) | Test A disease control rating ([2]; 40 ppm (*)) | Test E disease control rating (Botrytis cinerea; 40 ppm (*)) | Test D disease control rating (Septoria nodorum; 40 ppm (*)) | Test C disease control rating (Septoria tritici; 200 ppm) [%] | Test B disease control rating ([1]; 200 ppm) [%] | Test A disease control rating ([2]; 200 ppm) [%] | Test E disease control rating (Botrytis cinerea; 200 ppm) [%] | Test D disease control rating (Septoria nodorum; 200 ppm) [%]
1 | COC(=O)NCc1cc(-n2ccc(-c3ccc(Cl)nc3OC)n2)ccc1C [Cmpd 45] | 95* % | 100* % | 98* % | 39* % | 100* % |  |  |  |  | 
2 | COC(=O)NCc1cc(-c2ccn(-c3ccc(Br)cc3[N+](=O)[O-])n2)ccc1C [Cmpd 48] | 100* % | 100* % | 0* % | 37* % | 100* % |  |  |  |  | 
3 | COC(=O)NCc1cc(-c2ccn(-c3ccc(Cl)cc3[N+](=O)[O-])n2)ccc1C [Cmpd 49] | 95* % | 100* % | 26* % | 8* % | 100* % |  |  |  |  | 
4 | COC(=O)NCc1cc(-n2ncc(-c3ccc(Cl)cc3F)n2)ccc1C [Cmpd 50] | 99* % | 100* % | 100* % | 77* % | 100* % |  |  |  |  | 
5 | C#CCOc1cc(OC)ccc1-c1ccn(-c2ccc(C)c(CNC(=O)OC)c2)n1 [Cmpd 51] |  |  |  |  |  | 88 | 100 | 0 | 0 | 100
6 | COC(=O)NCc1cc(-c2ccn(-c3ccc(Cl)cc3C#N)n2)ccc1C [Cmpd 52] | 88* % | 100* % | 97* % | 0* % | 100* % |  |  |  |  | 
7 | COC(=O)NCc1cc(-n2ccc(-c3ccc(OC)cc3OCC#N)n2)ccc1C [Cmpd 53] |  |  |  |  |  | 97 | 100 | 100 | 0 | 100
8 | COC(=O)NCc1cc(-n2ccc(-c3ccc(Br)cc3Cl)n2)ccc1C [Cmpd 55] | 91* % | 100* % | 100* % | 38* % | 100* % |  |  |  |  | 
9 | COC(=O)NCc1cc(-n2ccc(-c3ccc(Br)cc3F)n2)ccc1C [Cmpd 56] | 98* % | 100* % | 100* % | 56* % | 100* % |  |  |  |  | 
10 | COC(=O)NCc1cc(-n2ccc(-c3ccc(F)cc3Br)n2)ccc1C [Cmpd 57] | 99* % | 100* % | 100* % | 63* % | 100* % |  |  |  |  | 
11 | COC(=O)NCc1cc(-n2ccc(-c3ccc(Br)cc3OC)n2)ccc1C [Cmpd 58] | 96* % | 100* % | 100* % | 26* % | 100* % |  |  |  |  | 
12 | COC(=O)NCc1cc(-n2ccc(-c3ccc(OC)cc3Br)n2)ccc1C [Cmpd 59] | 97* % | 100* % | 99* % | 52* % | 100* % |  |  |  |  | 
13 | COC(=O)NCc1cc(-c2ccn(-c3ccc(F)cc3Cl)n2)ccc1C [Cmpd 60] | 91* % | 100* % | 100* % | 99* % | 100* % |  |  |  |  | 
14 | COC(=O)NCc1cc(-c2ccn(-c3ccc(Br)cc3Cl)n2)ccc1C [Cmpd 61] | 94* % | 100* % | 100* % | 91* % | 100* % |  |  |  |  | 
15 | COC(=O)NCc1cc(-c2ccn(-c3ccc(Br)cc3Br)n2)ccc1C [Cmpd 62] | 97* % | 100* % | 100* % | 100* % | 100* % |  |  |  |  | 
16 | COC(=O)NCc1cc(-c2ccn(-c3ccc(Cl)cc3Br)n2)ccc1C [Cmpd 63] | 96* % | 100* % | 100* % | 99* % | 100* % |  |  |  |  | 
17 | COC(=O)NCc1cc(-c2ccn(-c3ccc(F)cc3F)n2)ccc1C [Cmpd 64] | 97* % | 100* % | 100* % | 74* % | 100* % |  |  |  |  | 
18 | COC(=O)NCc1cc(-c2ccn(-c3ccc(Cl)cc3F)n2)ccc1C [Cmpd 65] | 98* % | 100* % | 100* % | 94* % | 100* % |  |  |  |  | 
19 | COC(=O)NCc1cc(-n2ncc(-c3ccc(F)cc3F)n2)ccc1C [Cmpd 67] | 98* % | 100* % | 100* % | 33* % | 100* % |  |  |  |  | 
20 | COC(=O)NCc1cc(-n2ncc(-c3ccc(OC)cc3Cl)n2)ccc1C [Cmpd 68] | 99* % | 100* % | 100* % | 77* % | 100* % |  |  |  |  | 
21 | COC(=O)NCc1cc(-n2ccc(-c3ccc(C#N)cc3C)n2)ccc1C [Cmpd 69] | 66* % | 100* % | 100* % | 0* % | 100* % |  |  |  |  | 
22 | COC(=O)NCc1cc(-n2ccc(-c3ccc(Cl)cc3O)n2)ccc1C [Cmpd 71] |  |  |  |  |  | 51 | 99 | 90 | 8 | 100
23 | COC(=O)NCc1cc(-n2ccc(-c3ccc(Cl)cc3OCC#N)n2)ccc1C [Cmpd 72] | 90* % | 100* % | 93* % | 0* % | 100* % |  |  |  |  | 
24 | CCOc1ccc(-c2ccn(-c3ccc(C)c(CNC(=O)OC)c3)n2)c(Cl)c1 [Cmpd 76] | 99* % | 100* % | 100* % | 0* % | 100* % |  |  |  |  | 
